# ChEMBL document CHEMBL5346943, “Discovery and Structural Optimization of Novel Quinolone Derivatives as Potent Irreversible Pan-Fibroblast Growth Factor Receptor Inhibitors for Treating Solid Tumors” (J Med Chem, 2023)
# Calls of active or inactive are those of the source. No cut-off for these calls is given here.
# Tests used:
# [1] = MRT (0 to t) in Sprague-Dawley rat measured at 2 mg/kg, iv for 0.083 to 24 hrs by LC-MS/MS analysis; format: ADME, organism-based; conditions: in vivo, time 0.083-24 hrs
# MV4-11 = assay: Antiproliferative activity against human MV4-11 cells incubated for 72 hrs by Cell counting kit 8 method; format: functional, cell-based; conditions: MV4-11, 72 h
# [2] = AUC (0 to t) in Sprague-Dawley rat measured at 2 mg/kg, iv for 0.083 to 24 hrs by LC-MS/MS analysis; format: ADME, organism-based; design: dose 2 mg/kg, time upper 24 hrs, time lower 0.083 hrs, route iv; conditions: in vivo
# [3] = AUC (0 to t) in Sprague-Dawley rat measured at 10 mg/kg, po for 0.083 to 24 hrs by LC-MS/MS analysis; format: ADME, organism-based; design: dose 10 mg/kg, time upper 24 hrs, time lower 0.083 hrs, route po; conditions: in vivo
# [4] = target: Fibroblast growth factor receptor 1 (Homo sapiens, UniProt P11362); assay: Inhibition of FGFR1 (unknown origin) incubated for 10 mins followed by substrate addition measured after 60 mins by ADP-Glo luminescence assay
# [5] = Toxicity in […] nude mouse xenografted with NCI-H1581 cells assessed as change in body weight once daily at 15 to 60 mg/kg, po for 24 days relative to control; format: organism-based; conditions: in vivo, 576 h, dose 15-60 mg/kg, time 24 day
# [6] = Solubility of the compound in PBS buffer of pH7.4 at 10 mM measured after 2 hrs by LC-MS/MS analysis; format: physicochemical; conditions: pH 7.4
# A549 = assay: Antiproliferative activity against human A549 cells incubated for 72 hrs by Cell counting kit 8 method; format: functional, cell-based; conditions: A549, 72 h
# [7] = Tmax in Sprague-Dawley rat measured at 2 mg/kg, iv for 0.083 to 24 hrs by LC-MS/MS analysis; format: ADME, organism-based; conditions: in vivo, time 0.083-24 hrs
# Huh-7 [8] = assay: Antitumor activity against human Huh-7 cells xenografted in BALB/c nude mouse assessed as reduction in tumor growth once daily at 60 mg/kg, po for 24 days; format: functional, organism-based; conditions: time 24.0 day
# [9] = Tmax in Sprague-Dawley rat measured at 30 mg/kg, po for 0.083 to 24 hrs by LC-MS/MS analysis; format: ADME, organism-based; conditions: in vivo, time 0.083-24 hrs
# [10] = MRT (0 to infinity) in Sprague-Dawley rat measured at 2 mg/kg, iv for 0.083 to 24 hrs by LC-MS/MS analysis; format: ADME, organism-based; conditions: in vivo, time 0.083-24 hrs
# [11] = Half life in Sprague-Dawley rat measured at 100 mg/kg, po for 0.083 to 24 hrs by LC-MS/MS analysis; format: ADME, organism-based; conditions: in vivo, time 0.083-24 hrs
# [12] = Clearance in Sprague-Dawley rat measured at 2 mg/kg, iv for 0.083 to 24 hrs by LC-MS/MS analysis; format: ADME, organism-based; conditions: in vivo, time 0.083-24 hrs
# [13] = AUC(0 to t) in Sprague-Dawley rat measured at 100 mg/kg, po for 0.083 to 24 hrs by LC-MS/MS analysis; format: ADME, organism-based; design: time upper 24 hrs, dose 100 mg/kg, time lower 0.083 hrs, route po; conditions: in vivo
# [14] = AUC(0 to t) in Sprague-Dawley rat measured at 60 mg/kg, po for 0.083 to 24 hrs by LC-MS/MS analysis; format: ADME, organism-based; design: time upper 24 hrs, time lower 0.083 hrs, dose 60 mg/kg, route po; conditions: in vivo
# [15] = C0 in Sprague-Dawley rat measured at 2 mg/kg, iv for 0.083 to 24 hrs by LC-MS/MS analysis; format: ADME, organism-based; conditions: in vivo, time 0.083-24 hrs
# [16] = Microsomal stability in human liver microsomes assessed as intrinsic clearance preincubated for 10 mins followed by NADPH addition measured upto 60 mins by LC-MS/MS analysis; format: ADME, Microsome; conditions: time < 70 min, read-out: CLH
# [17] = Permeability of the compound at 10 uM preincubated in acceptor compartment for 16 hrs followed by 16 hrs incubation in donor compartment by PAMPA based LC-MS/MS analysis; format: ADME; conditions: time 32 hrs, read-out: permeability
# [18] = Oral bioavailability in Sprague-Dawley rat measured at 10 mg/kg for 0.083 to 24 hrs by LC-MS/MS analysis; format: ADME, organism-based; conditions: in vivo, time 0.083-24 hrs
# [19] = Microsomal stability in human liver microsomes assessed as half life preincubated for 10 mins followed by NADPH addition measured upto 60 mins by LC-MS/MS analysis; format: ADME, Microsome; conditions: time < 70 min
# [20] = Half life in Sprague-Dawley rat measured at 2 mg/kg, iv for 0.083 to 24 hrs by LC-MS/MS analysis; format: ADME, organism-based; conditions: in vivo, time 0.083-24 hrs
# [21] = MRT (0 to infinity) in Sprague-Dawley rat measured at 10 mg/kg, po for 0.083 to 24 hrs by LC-MS/MS analysis; format: ADME, organism-based; conditions: in vivo, time 0.083-24 hrs
# [22] = Tmax in Sprague-Dawley rat measured at 60 mg/kg, po for 0.083 to 24 hrs by LC-MS/MS analysis; format: ADME, organism-based; conditions: in vivo, time 0.083-24 hrs
# [23] = Antiproliferative activity against human RBE cells incubated for 72 hrs by Cell counting kit 8 method; format: functional, cell-based
# [24] = target: Fibroblast growth factor receptor 3 (Homo sapiens, UniProt P22607); assay: Inhibition of FGFR3 (unknown origin) incubated for 10 mins followed by substrate addition measured after 60 mins by ADP-Glo luminescence assay
# Huh-7 [25] = assay: Antiproliferative activity against human Huh-7 cells incubated for 72 hrs by Cell counting kit 8 method; format: functional, cell-based; conditions: Huh-7, 72 h
# HT-29 = assay: Antiproliferative activity against human HT-29 cells incubated for 72 hrs by Cell counting kit 8 method; format: functional, cell-based; conditions: HT-29, 72 h
# [26] = AUC(0 to infinity) in Sprague-Dawley rat measured at 30 mg/kg, po for 0.083 to 24 hrs by LC-MS/MS analysis; format: ADME, organism-based; design: time upper 24 hrs, dose 30 mg/kg, time lower 0.083 hrs, route po; conditions: in vivo
# Hep 3B2 = assay: Antiproliferative activity against human Hep3B cells incubated for 72 hrs by Cell counting kit 8 method; format: functional, cell-based
# [27] = target: Fibroblast growth factor receptor 2 (Homo sapiens, UniProt P21802); assay: Inhibition of FGFR2 (unknown origin) incubated for 10 mins followed by substrate addition measured after 60 mins by ADP-Glo luminescence assay
# [28] = Toxicity in […] nude mouse xenografted with Huh-7 cells assessed as change in body weight once daily at 15 to 60 mg/kg, po for 24 days relative to control; format: organism-based; conditions: in vivo, 576 h, dose 15-60 mg/kg, time 24 day
# [29] = Cmax in Sprague-Dawley rat measured at 10 mg/kg, po for 0.083 to 24 hrs by LC-MS/MS analysis; format: ADME, organism-based; design: time 0.083-24 hrs, dose 10 mg/kg, route po; conditions: in vivo
# [30] = target: Fibroblast growth factor receptor 4 (Homo sapiens, UniProt P22455); assay: Inhibition of FGFR4 (unknown origin) incubated for 10 mins followed by substrate addition measured after 60 mins by ADP-Glo luminescence assay
# [31] = AUC(0 to infinity) in Sprague-Dawley rat measured at 100 mg/kg, po for 0.083 to 24 hrs by LC-MS/MS analysis; format: ADME, organism-based; design: dose 100 mg/kg, time 0.083-24 hrs, route po; conditions: in vivo
# [32] = Ionization constant, pKa of the compound in PBS buffer at pH 1.42 to 12.33 by electrochemical method; format: physicochemical
# [33] = Volume of distribution at steady state in Sprague-Dawley rat measured at 2 mg/kg, iv for 0.083 to 24 hrs by LC-MS/MS analysis; format: ADME, organism-based; conditions: in vivo, time 0.083-24 hrs, read-out: Vdss
# MCF7 = assay: Antiproliferative activity against human MCF7 cells incubated for 72 hrs by Cell counting kit 8 method; format: functional, cell-based; conditions: MCF7, 72 h
# [34] = Cmax in Sprague-Dawley rat measured at 60 mg/kg, po for 0.083 to 24 hrs by LC-MS/MS analysis; format: ADME, organism-based; design: dose 60 mg/kg, time 0.083-24 hrs, route po; conditions: in vivo
# Chain of Fibroblast growth factor receptor 2 (P21802 whole entry): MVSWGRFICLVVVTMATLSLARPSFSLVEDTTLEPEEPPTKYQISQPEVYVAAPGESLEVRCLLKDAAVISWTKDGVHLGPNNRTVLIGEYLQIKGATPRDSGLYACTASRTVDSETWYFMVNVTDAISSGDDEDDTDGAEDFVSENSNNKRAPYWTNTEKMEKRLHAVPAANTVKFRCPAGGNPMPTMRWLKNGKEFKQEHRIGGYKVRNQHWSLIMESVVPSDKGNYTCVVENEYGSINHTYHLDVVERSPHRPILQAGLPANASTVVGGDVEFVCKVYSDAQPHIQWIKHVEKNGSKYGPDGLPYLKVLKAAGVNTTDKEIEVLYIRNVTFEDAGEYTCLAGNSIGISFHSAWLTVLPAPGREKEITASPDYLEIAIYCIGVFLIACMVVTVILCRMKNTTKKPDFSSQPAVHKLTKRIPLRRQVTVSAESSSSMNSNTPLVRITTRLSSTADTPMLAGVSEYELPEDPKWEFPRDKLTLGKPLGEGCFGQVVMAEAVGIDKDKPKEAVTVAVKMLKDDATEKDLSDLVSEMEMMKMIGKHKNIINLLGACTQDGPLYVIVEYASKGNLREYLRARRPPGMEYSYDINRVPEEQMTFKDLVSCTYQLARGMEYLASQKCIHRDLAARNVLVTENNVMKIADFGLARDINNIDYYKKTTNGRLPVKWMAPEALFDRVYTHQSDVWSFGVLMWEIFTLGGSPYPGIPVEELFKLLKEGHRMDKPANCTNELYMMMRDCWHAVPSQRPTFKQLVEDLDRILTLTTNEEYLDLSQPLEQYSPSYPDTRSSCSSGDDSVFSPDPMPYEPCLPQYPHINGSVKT
# Chain of Fibroblast growth factor receptor 4 (P22455 whole entry): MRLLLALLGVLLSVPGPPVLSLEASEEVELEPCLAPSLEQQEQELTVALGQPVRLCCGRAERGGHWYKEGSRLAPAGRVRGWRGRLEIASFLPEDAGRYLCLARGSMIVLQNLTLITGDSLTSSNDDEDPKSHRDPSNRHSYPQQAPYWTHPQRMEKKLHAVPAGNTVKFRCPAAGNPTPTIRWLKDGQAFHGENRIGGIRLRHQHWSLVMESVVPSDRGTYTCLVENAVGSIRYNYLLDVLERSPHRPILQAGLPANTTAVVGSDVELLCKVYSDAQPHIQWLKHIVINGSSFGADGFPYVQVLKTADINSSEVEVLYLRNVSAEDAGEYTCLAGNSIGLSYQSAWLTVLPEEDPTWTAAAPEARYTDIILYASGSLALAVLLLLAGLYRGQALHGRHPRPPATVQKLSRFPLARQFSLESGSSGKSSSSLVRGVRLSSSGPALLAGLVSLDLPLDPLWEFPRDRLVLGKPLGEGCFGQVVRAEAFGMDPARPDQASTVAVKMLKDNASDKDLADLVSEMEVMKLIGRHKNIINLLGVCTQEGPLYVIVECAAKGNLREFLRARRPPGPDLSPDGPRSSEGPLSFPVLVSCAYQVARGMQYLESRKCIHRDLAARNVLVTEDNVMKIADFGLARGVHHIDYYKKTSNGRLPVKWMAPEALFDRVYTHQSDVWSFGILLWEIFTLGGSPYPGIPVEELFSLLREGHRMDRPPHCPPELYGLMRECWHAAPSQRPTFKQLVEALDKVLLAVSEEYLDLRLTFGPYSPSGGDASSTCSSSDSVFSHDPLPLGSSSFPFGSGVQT
# Chain of Fibroblast growth factor receptor 3 (P22607 whole entry): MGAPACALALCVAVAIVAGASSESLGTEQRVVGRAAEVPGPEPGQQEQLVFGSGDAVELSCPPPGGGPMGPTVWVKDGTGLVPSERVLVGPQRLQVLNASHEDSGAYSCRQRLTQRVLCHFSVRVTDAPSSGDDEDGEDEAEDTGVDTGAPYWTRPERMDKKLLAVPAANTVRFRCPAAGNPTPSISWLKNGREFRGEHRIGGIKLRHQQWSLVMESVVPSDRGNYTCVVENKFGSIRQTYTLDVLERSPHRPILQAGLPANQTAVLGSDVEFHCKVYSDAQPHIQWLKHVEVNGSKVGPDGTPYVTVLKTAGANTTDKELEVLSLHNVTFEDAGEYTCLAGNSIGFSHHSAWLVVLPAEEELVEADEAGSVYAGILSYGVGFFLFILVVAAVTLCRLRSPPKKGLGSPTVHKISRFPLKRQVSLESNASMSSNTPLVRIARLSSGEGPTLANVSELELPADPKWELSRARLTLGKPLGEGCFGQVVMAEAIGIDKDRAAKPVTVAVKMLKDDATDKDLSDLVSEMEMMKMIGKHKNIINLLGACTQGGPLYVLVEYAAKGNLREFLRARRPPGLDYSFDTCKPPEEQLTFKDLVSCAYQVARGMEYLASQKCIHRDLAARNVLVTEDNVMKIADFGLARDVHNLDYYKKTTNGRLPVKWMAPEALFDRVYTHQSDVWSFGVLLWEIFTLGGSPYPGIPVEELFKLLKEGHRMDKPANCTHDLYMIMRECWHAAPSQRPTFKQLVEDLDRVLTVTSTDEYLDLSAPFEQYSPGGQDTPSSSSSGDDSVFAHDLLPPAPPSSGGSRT
# Chain of Fibroblast growth factor receptor 1 (P11362 whole entry): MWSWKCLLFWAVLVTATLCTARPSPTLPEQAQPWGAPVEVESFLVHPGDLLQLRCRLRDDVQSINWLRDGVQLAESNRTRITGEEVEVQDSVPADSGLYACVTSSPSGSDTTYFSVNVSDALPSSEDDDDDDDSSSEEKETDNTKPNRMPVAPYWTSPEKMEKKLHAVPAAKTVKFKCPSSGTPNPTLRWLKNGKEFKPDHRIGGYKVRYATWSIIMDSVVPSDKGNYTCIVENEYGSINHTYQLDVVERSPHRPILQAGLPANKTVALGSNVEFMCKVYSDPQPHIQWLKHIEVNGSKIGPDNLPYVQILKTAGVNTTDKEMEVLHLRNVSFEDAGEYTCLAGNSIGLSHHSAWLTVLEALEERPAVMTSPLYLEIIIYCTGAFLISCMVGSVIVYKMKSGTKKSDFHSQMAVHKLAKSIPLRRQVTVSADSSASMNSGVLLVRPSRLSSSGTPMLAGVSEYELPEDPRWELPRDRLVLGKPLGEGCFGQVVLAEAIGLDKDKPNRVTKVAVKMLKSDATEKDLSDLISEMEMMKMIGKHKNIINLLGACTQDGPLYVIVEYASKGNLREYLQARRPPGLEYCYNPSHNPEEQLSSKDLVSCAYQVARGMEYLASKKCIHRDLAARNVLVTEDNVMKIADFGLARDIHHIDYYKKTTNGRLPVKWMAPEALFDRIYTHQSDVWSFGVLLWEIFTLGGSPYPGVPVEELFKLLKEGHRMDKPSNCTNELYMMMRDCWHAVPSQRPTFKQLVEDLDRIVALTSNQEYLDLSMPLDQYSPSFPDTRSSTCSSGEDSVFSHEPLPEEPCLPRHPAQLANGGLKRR
smiles,measurement,setting,value
C=CC(=O)N1CCC(c2cc3c(Oc4ccc(NC(=O)NC5CC5)c(Cl)c4)ccnc3cc2OC)CC1,MRT last,[1],10.8 min
same,IC50,MV4-11,> 10000 nM
same,AUC(0-t),[2],570 ng·h/mL
same,AUC(0-t),[3],1730 ng·h/mL
same,IC50,[4],9.9 nM
same,Activity,[5],Active
same,"solubility at 2 h, 10000 µM",[6],1.73 µM
same,IC50,A549,> 10000 nM
same,Tmax,[7],4.8 min
same,Activity,Huh-7 [8],Active
same,Tmax,[9],30 min
same,MRT,[10],11.4 min
same,half-life,[11],81.6 min
same,clearance,[12],58 mL/min/kg
same,AUC(0-t),[13],28100 ng·h/mL
same,AUC(0-t),[14],14900 ng·h/mL
same,C0,[15],3300 ng/mL
same,microsomal CLint,[16],46.7 µL/min/mg
same,"Papp at 16 h, 10 µM",[17],12.3 ×10⁻⁶ cm/s
same,bioavailability,[18],60.7%
same,half-life,[19],61.9 min
same,half-life,[20],15.6 min
same,MRT,[21],190 min
same,Tmax,[22],30 min
same,IC50,[23],357 nM
same,IC50,[24],16 nM
same,IC50,Huh-7 [25],12.6 nM
same,IC50,HT-29,7230 nM
same,AUC(0-inf),[26],7950 ng·h/mL
same,IC50,Hep 3B2,52.6 nM
same,IC50,[27],3.1 nM
same,Activity,[28],Active
same,Cmax,[29],1800 ng/mL
same,IC50,[30],1.8 nM
same,AUC(0-inf),[31],28200 ng·h/mL
same,pKa,[32],5.77
same,Vd,[33],1.32 L/kg
same,IC50,MCF7,> 10000 nM
same,Cmax,[34],7990 ng/mL
